The results in this text go back to ChEMBL document CHEMBL1159292, “New antifungal bithienylacetylenes from Blumea obliqua” (1995).

In brackets after ≈: the same amount, converted by molar mass. Activity calls are given as the source filed them. The calls are words filed in the database; no cut-off is given here.

Experiment [1] relates to Salmonella enterica subsp. enterica serovar Typhi str. CT18. The experiment can be described thus: Antibacterial activity against Salmonella typhi by agar well diffusion method. The experiment is classed as functional, organism-based. (In general: A growth-free zone around the sample is the usual read-out of agar diffusion tests.)
For another experiment, the system named is Shigella boydii. The experiment can be described thus: Antibacterial activity against Shigella boydii by agar well diffusion method. The experiment is classed as functional, organism-based.
Experiment [2] concerns Corynebacterium diphtheriae. The experiment can be described thus: Antibacterial activity against Corynebacterium diphtheriae by agar well diffusion method. The experiment is classed as functional, organism-based.
In the next experiment the test system is Staphylococcus aureus. Nature of the experiment: Antibacterial activity against Staphylococcus aureus by agar well diffusion method. The experiment is classed as functional, organism-based.
In a further experiment the test system is Enterococcus faecalis. The experiment can be described thus: Antibacterial activity against Streptococcus faecalis by agar well diffusion method. In kind it is functional, organism-based.
A further experiment deals with Epidermophyton floccosum. Nature of the experiment: Antifungal activity against Epidermophyton floccosum after 7 days by tube dilution method. The conditions noted are these: 168 h. In kind it is functional.
Another experiment deals with Escherichia coli. Nature of the experiment: Antibacterial activity against Escherichia coli by agar well diffusion method. The experiment is classed as functional, organism-based.
Another experiment deals with Pleurotus ostreatus. Nature of the experiment: Antifungal activity against Pleurotus ostreatus after 7 days by tube dilution method. The experiment is classed as functional. The conditions noted are these: 168 h.

The MIC is the lowest concentration that inhibits growth of the organism. Read a low MIC as a more susceptible organism. Turning to `Cc1ccc(-c2ccc(C#CCCOC(=O)CC(C)C)s2)s1`, the outcome (in experiment [1]; in the experiment with Shigella boydii; in experiment [2]; in the experiment on Staphylococcus aureus; in the experiment with Enterococcus faecalis; in the experiment on Escherichia coli) was Active. Besides, the MIC in the experiment on Epidermophyton floccosum and in the experiment on Pleurotus ostreatus was 200 mg/L (≈ 602 µM) each time.
Regarding `C=CC#Cc1ccc(-c2ccc(COC(=O)CC(C)C)s2)s1`, the MIC with Epidermophyton floccosum and against Pleurotus ostreatus was 200 mg/L (≈ 605 µM) in each case.
Take `COC1=CC(=O)C[C@@H](C)[C@]12Oc1c(Cl)c(OC)cc(OC)c1C2=O` [GRISEOFULVIN]: the MIC in the experiment on Epidermophyton floccosum and in the experiment on Pleurotus ostreatus was 250 mg/L (≈ 709 µM) in each case.
